According to patent publication US20260262643A1, “HERBICIDAL BENZOXAZINES” (FMC CORPORATION, priority 2022, published 2026):

How the values were obtained:
wheat [1] = experiment: Test A preemergence; format: in vivo, Triticum aestivum; conditions: visual injury after 10 days, 0 to 100 scale, 0 is no effect, 100 is complete control
How it was run: (§1)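 Loam/sand soil; pre-em directed soil spray at planting, post-em spray at 1–2 leaf (2–10 cm). Compound in non-phytotoxic solvent + surfactant. Greenhouse 10 d; visual injury vs untreated, 0 = no effect, 100 = complete control.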

kochia [2] = experiment: Test A preemergence; format: in vivo, Bassia scoparia; conditions: visual injury after 10 days, 0 to 100 scale, 0 is no effect, 100 is complete control
How it was run: as §1

foxtail, giant [3] = experiment: Test A preemergence; format: in vivo, Setaria faberi; conditions: visual injury after 10 days, 0 to 100 scale, 0 is no effect, 100 is complete control
How it was run: as §1

horseweed = experiment: Test A postemergence; format: in vivo, Erigeron canadensis; conditions: postemergence, 10 days
How it was run: as §1

oat, wild [4] = experiment: Test A postemergence; format: in vivo, Avena fatua; conditions: postemergence, 10 days
How it was run: as §1

barnyardgrass [5] = experiment: Test A preemergence; format: in vivo, Echinochloa crusgalli; conditions: visual injury after 10 days, 0 to 100 scale, 0 is no effect, 100 is complete control
How it was run: as §1

barnyardgrass [6] = experiment: Test A postemergence; format: in vivo, Echinochloa crusgalli; conditions: postemergence, 10 days
How it was run: as §1

barnyardgrass [7] = experiment: Test B flooded paddy test; format: in vivo, Echinochloa crus-galli; conditions: 250 g ai/ha, Flood, 13 days, 0 to 100 scale (0 no effect, 100 complete control)
How it was run: (§2)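 Flooded to 3 cm at treatment time, 2-leaf plants got the test compound applied straight into the paddy water. They then stayed under constant flood in a greenhouse for 13 days. Ratings used a 0 to 100 visual scale.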

foxtail, giant [8] = experiment: Test A postemergence; format: in vivo, Setaria faberi; conditions: postemergence, 10 days
How it was run: as §1

pigweed, palmer [9] = experiment: Test A preemergence; format: in vivo, Amaranthus palmeri; conditions: visual injury after 10 days, 0 to 100 scale, 0 is no effect, 100 is complete control
How it was run: as §1

ragweed [10] = experiment: Test A postemergence; format: in vivo, Ambrosia artemisiifolia; conditions: postemergence, 10 days
How it was run: as §1

sedge, umbrella = experiment: Test B flooded paddy test; format: in vivo, Cyperus difformis; conditions: 250 g ai/ha, Flood, 13 days, 0 to 100 scale (0 no effect, 100 complete control)
How it was run: as §2

ryegrass, Italian [11] = experiment: Test A postemergence; format: in vivo, Lolium multiflorum; conditions: postemergence, 10 days
How it was run: as §1

blackgrass [12] = experiment: Test A preemergence; format: in vivo, Alopecurus myosuroides; conditions: visual injury after 10 days, 0 to 100 scale, 0 is no effect, 100 is complete control
How it was run: as §1

ryegrass, Italian [13] = experiment: Test A preemergence; format: in vivo, Lolium multiflorum; conditions: visual injury after 10 days, 0 to 100 scale, 0 is no effect, 100 is complete control
How it was run: as §1

kochia [14] = experiment: Test A postemergence; format: in vivo, Bassia scoparia; conditions: postemergence, 10 days
How it was run: as §1

pigweed, palmer [15] = experiment: Test A postemergence; format: in vivo, Amaranthus palmeri; conditions: postemergence, 10 days
How it was run: as §1

soybean [16] = experiment: Test A preemergence; format: in vivo, Glycine max; conditions: visual injury after 10 days, 0 to 100 scale, 0 is no effect, 100 is complete control
How it was run: as §1

corn [17] = experiment: Test A postemergence; format: in vivo, Zea mays; conditions: postemergence, 10 days
How it was run: as §1

rice = experiment: Test B flooded paddy test; format: in vivo, Oryza sativa; conditions: 250 g ai/ha, Flood, 13 days, 0 to 100 scale (0 no effect, 100 complete control)
How it was run: as §2

ragweed [18] = experiment: Test A preemergence; format: in vivo, Ambrosia artemisiifolia; conditions: visual injury after 10 days, 0 to 100 scale, 0 is no effect, 100 is complete control
How it was run: as §1

wheat [19] = experiment: Test A postemergence; format: in vivo, Triticum aestivum; conditions: postemergence, 10 days
How it was run: as §1

ducksalad = experiment: Test B flooded paddy test; format: in vivo, Heteranthera limosa; conditions: 250 g ai/ha, Flood, 13 days, 0 to 100 scale (0 no effect, 100 complete control)
How it was run: as §2

oat, wild [20] = experiment: Test A preemergence; format: in vivo, Avena fatua; conditions: visual injury after 10 days, 0 to 100 scale, 0 is no effect, 100 is complete control
How it was run: as §1

corn [21] = experiment: Test A preemergence; format: in vivo, Zea mays; conditions: visual injury after 10 days, 0 to 100 scale, 0 is no effect, 100 is complete control
How it was run: as §1

blackgrass [22] = experiment: Test A postemergence; format: in vivo, Alopecurus myosuroides; conditions: postemergence, 10 days
How it was run: as §1

soybean [23] = experiment: Test A postemergence; format: in vivo, Glycine max; conditions: postemergence, 10 days
How it was run: as §1

galium = experiment: Test A postemergence; format: in vivo, Galium aparine; conditions: postemergence, 10 days
How it was run: as §1

[24] = 125 g ai/ha, 0 to 100 scale, 0 no effect, 100 complete control
[25] = 500 g ai/ha, visual injury, 0 to 100 scale (0 no effect, 100 complete control)

CC(C)Cc1ncn(-c2cccc(C(=O)N3C[C@H](C)Oc4c(Cl)cccc43)c2)n1 [Compound 112]
100: Plant response rating, Barnyardgrass (barnyardgrass [5]; 500 g ai/ha) | Plant response rating, Pigweed, Palmer (pigweed, palmer [9]; 500 g ai/ha) | Plant response rating, Soybean (soybean [23]; [25]) | Plant response rating, Galium (galium; [25])
70: Plant response rating, Foxtail, Giant (foxtail, giant [8]; [25]) | Kochia plant response rating (kochia [14]; [24])
0: Plant response rating, Kochia (kochia [2]; 125 g ai/ha) | Horseweed plant response rating (horseweed; [24]) | Plant response rating, Horseweed (horseweed; [25]) | Plant response rating, Barnyardgrass (barnyardgrass [7]) | Ragweed plant response rating (ragweed [10]; [24]) | Plant response rating, Ragweed (ragweed [10]; [25]) | Plant response rating, Sedge, Umbrella (sedge, umbrella) | Plant response rating, Soybean (soybean [16]; 125 g ai/ha) | Plant response rating, Rice (rice) | Plant response rating, Ragweed (ragweed [18]; 125 g ai/ha) | Plant response rating, Ducksalad (ducksalad) | Plant response rating, Oat, Wild (oat, wild [20]; 125 g ai/ha) | Plant response rating, Corn (corn [21]; 125 g ai/ha) | Plant response rating, Corn (corn [21]; 500 g ai/ha) | Blackgrass plant response rating (blackgrass [22]; [24])
20: Plant response rating, Wheat (wheat [1]; 125 g ai/ha) | Foxtail, Giant plant response rating (foxtail, giant [8]; [24]) | Plant response rating, Blackgrass (blackgrass [12]; 125 g ai/ha) | Corn plant response rating (corn [17]; [24]) | Plant response rating, Wheat (wheat [19]; [25]) | Plant response rating, Oat, Wild (oat, wild [20]; 500 g ai/ha)
60: Plant response rating, Kochia (kochia [2]; 500 g ai/ha) | Plant response rating, Ryegrass, Italian (ryegrass, Italian [11]; [25]) | Plant response rating, Blackgrass (blackgrass [22]; [25])
30: Plant response rating, Oat, Wild (oat, wild [4]; [25])
40: Plant response rating, Wheat (wheat [1]; 500 g ai/ha) | Plant response rating, Barnyardgrass (barnyardgrass [5]; 125 g ai/ha) | Plant response rating, Barnyardgrass (barnyardgrass [6]; [25]) | Plant response rating, Ryegrass, Italian (ryegrass, Italian [13]; 125 g ai/ha) | Plant response rating, Corn (corn [17]; [25]) | Plant response rating, Ragweed (ragweed [18]; 500 g ai/ha)
80: Plant response rating, Blackgrass (blackgrass [12]; 500 g ai/ha)
90: Plant response rating, Foxtail, Giant (foxtail, giant [3]; 500 g ai/ha) | Plant response rating, Ryegrass, Italian (ryegrass, Italian [13]; 500 g ai/ha) | Plant response rating, Kochia (kochia [14]; [25]) | Plant response rating, Pigweed, Palmer (pigweed, palmer [15]; [25]) | Soybean plant response rating (soybean [23]; [24]) | Galium plant response rating (galium; [24])
50: Plant response rating, Foxtail, Giant (foxtail, giant [3]; 125 g ai/ha) | Plant response rating, Pigweed, Palmer (pigweed, palmer [9]; 125 g ai/ha) | Pigweed, Palmer plant response rating (pigweed, palmer [15]; [24]) | Plant response rating, Soybean (soybean [16]; 500 g ai/ha)
10: Oat, Wild plant response rating (oat, wild [4]; [24]) | Barnyardgrass plant response rating (barnyardgrass [6]; [24]) | Ryegrass, Italian plant response rating (ryegrass, Italian [11]; [24]) | Wheat plant response rating (wheat [19]; [24])
